Measured values: patent US20250011318A1 (ARCUS BIOSCIENCES, INC., priority 2023, published 2025)

Experiments:
[1] = target: T1, Cbl-b (Homo sapiens, UniProt Q13191); assay: Cbl-b probe displacement HTRF binding assay; details: 0.4 nM biotinylated Cbl-b, 150 nM BODIPY probe
T1 construct: biotin (biotinylated)
How it was run: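 Biotinylated Cbl-b (0.4 nM) preincubated 60 min at RT with compound (20-point 1:2 series, 10 μM top), then 150 nM BODIPY probe for 15 min, then streptavidin-terbium detection. Buffer: 20 mM Hepes, 150 mM NaCl, 0.01% Triton X-100, 0.5 mM TCEP, 0.01% BSA. Loss of HTRF signal gave IC50 via four-parameter fit.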

[2] = test system: Jurkat cells; assay: IL-2 secretion assay in CD3/CD28-activated Jurkat cells (AlphaLISA); format: cell-based, human; details: Homo sapiens, CD3/CD28 T Cell Activator, 24 h, IL-2 AlphaLISA
How it was run: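 Jurkat cells (50,000/well) preincubated 1 h at 37° C with compound (16-point 1:2 series, final 10 μM to 300 pM) in Opti-MEM, then stimulated with CD3/CD28 activator for 24 h. Supernatant IL-2 read by AlphaLISA; EC50 from 4-parameter logistic fit.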

T1 sequence (Q13191 whole entry, species assumed): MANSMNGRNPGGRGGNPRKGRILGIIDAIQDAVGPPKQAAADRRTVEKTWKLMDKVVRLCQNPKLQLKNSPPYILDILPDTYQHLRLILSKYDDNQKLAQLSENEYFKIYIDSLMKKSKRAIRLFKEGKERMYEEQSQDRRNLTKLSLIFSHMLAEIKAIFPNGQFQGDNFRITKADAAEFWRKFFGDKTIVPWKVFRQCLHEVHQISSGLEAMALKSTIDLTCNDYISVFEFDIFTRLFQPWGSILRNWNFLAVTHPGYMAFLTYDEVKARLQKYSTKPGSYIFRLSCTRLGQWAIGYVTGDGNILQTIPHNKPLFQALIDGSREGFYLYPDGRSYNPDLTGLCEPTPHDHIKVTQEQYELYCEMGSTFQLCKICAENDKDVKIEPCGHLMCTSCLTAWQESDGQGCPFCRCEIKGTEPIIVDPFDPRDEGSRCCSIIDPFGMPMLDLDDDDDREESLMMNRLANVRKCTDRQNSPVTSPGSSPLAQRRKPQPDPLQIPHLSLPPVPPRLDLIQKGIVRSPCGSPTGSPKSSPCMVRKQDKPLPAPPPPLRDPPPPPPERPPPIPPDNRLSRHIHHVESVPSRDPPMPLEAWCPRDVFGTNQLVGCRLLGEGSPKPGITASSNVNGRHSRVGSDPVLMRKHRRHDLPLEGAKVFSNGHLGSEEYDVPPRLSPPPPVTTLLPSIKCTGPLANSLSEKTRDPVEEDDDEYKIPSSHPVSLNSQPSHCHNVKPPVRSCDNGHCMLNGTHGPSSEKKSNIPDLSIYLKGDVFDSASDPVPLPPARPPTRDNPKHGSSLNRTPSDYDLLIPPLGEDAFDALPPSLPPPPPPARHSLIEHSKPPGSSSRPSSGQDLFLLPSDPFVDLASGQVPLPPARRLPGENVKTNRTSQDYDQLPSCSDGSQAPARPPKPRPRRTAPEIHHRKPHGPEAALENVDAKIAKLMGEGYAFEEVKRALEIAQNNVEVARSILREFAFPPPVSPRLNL

| SMILES | IC50 [1] [µM] | EC50 [2] [µM] |
| --- | --- | --- |
| Cc1ocnc1-c1cc(C#N)ccc1-c1cc(C2CC2)nc(-n2cc(C3CC3)c3cc(CNC4(C)CCC4)[nH]c3c2=O)c1 [Example 71, 4-(6-cyclopropyl-2-{4-cyclopropyl-2-[(1-methylcyclobutylamino)methyl]-7-oxo-1,6-dihydro-1,6-diaza-6-indenyl}-4-pyridyl)-3-(5-methyl-1,3-oxazol-4-yl)benzonitrile] | < 0.1 | < 0.1 |
| CC1(NCc2cc3c(C4CC4)cn(-c4cc(-c5ccc(C#N)cc5-c5ncccc5C(F)(F)F)cc(C5CC5)n4)c(=O)c3[nH]2)CCC1 [Example 73, 4-(6-cyclopropyl-2-{4-cyclopropyl-2-[(1-methylcyclobutylamino)methyl]-7-oxo-1,6-dihydro-1,6-diaza-6-indenyl}-4-pyridyl)-3-[3-(trifluoromethyl)-2-pyridyl]benzonitrile] | < 0.1 | 0.1 to 1 |
| Cc1cccnc1-c1cc(C#N)ccc1-c1cc(C2CC2)nc(-n2cc(C3CC3)c3cc(CN4CCC[C@H](C)C4)[nH]c3c2=O)c1 [Example 74, 4-[2-cyclopropyl-6-[4-cyclopropyl-2-[[(3S)-3-methylpiperidin-1-yl]methyl]-7-oxo-1H-pyrrolo[2,3-c]pyridin-6-yl]pyridin-4-yl]-3-(3-methylpyridin-2-yl)benzonitrile] | < 0.1 | 0.1 to 1 |
| Cc1ccnnc1-c1cc(C#N)ccc1-c1cc(C2CC2)nc(-n2cc(C3CC3)c3cc(CNC4(C)CCC4)[nH]c3c2=O)c1 [Example 75, 4-[2-Cyclopropyl-6-[4-cyclopropyl-2-[[(1-methylcyclobutyl)amino]methyl]-7-oxo-1H-pyrrolo[2,3-c]pyridin-6-yl]pyridin-4-yl]-3-(4-methylpyridazin-3-yl)benzonitrile] | < 0.1 | < 0.1 |
| Cc1ccnnc1-c1cc(C#N)ccc1-c1cc(C2CC2)nc(-n2cc(C3CC3)c3cc(CNC4(CO)CCC4)[nH]c3c2=O)c1 [Example 76, 4-[2-Cyclopropyl-6-[4-cyclopropyl-2-[[[1-(hydroxymethyl)cyclobutyl]-amino]methyl]-7-oxo-1H-pyrrolo[2,3-c]pyridin-6-yl]pyridin-4-yl]-3-(4-methylpyridazin-3-yl)benzonitrile] | < 0.1 | < 0.1 |
| Cc1ccnnc1-c1cc(C#N)ccc1-c1cc(C2CC2)nc(-n2cc(C3CC3)c3cc(CN4CCC[C@H](C)C4)[nH]c3c2=O)c1 [Example 77] | < 0.1 | < 0.1 |
| Cc1cc(-c2ccc(C#N)cc2-c2nccn2C)cc(-n2cc(C3CC3)c3cc(CN4CCC[C@H](C)C4)[nH]c3c2=O)n1 [Example 81, 4-[2-(2-{[(S)-3-methyl-1-piperidyl]methyl}-4-cyclopropyl-7-oxo-1,6-dihydro-1,6-diaza-6-indenyl)-6-methyl-4-pyridyl]-3-(1-methyl-2-imidazolyl)benzonitrile] | < 0.1 | < 0.1 |
| COc1cc(-c2ccc(F)cc2-c2nccn2C)cc(-n2cc(C3CC3)c3cc(CN4CCC[C@H](C)C4)[nH]c3c2=O)n1 [Example 82, 4-Cyclopropyl-6-[4-[4-fluoro-2-(1-methylimidazol-2-yl)phenyl]-6-methoxypyridin-2-yl]-2-[[(3S)-3-methylpiperidin-1-yl]methyl]-1H-pyrrolo[2,3-c]pyridin-7-one] | < 0.1 | < 0.1 |
| C[C@H]1CCCN(Cc2cc3c(C4CC4)cn(-c4cc(-c5ccc(C(F)(F)F)cc5-c5nccn5C)cc(C5CC5)n4)c(=O)c3[nH]2)C1 [Example 83, 4-Cyclopropyl-6-[6-cyclopropyl-4-[2-(1-methylimidazol-2-yl)-4-(trifluoromethyl)phenyl]pyridin-2-yl]-2-[[(3S)-3-methylpiperidin-1-yl]methyl]-1H-pyrrolo[2,3-c]pyridin-7-one] | < 0.1 | < 0.1 |
| C[C@H]1CCCN(Cc2cc3c(C#N)cn(-c4cc(-c5ccc(C#N)cc5-c5nccn5C)cc(C5CC5)n4)c(=O)c3[nH]2)C1 [Example 84, 2-{[(S)-3-methyl-1-piperidyl]methyl}-6-{4-[4-cyano-2-(1-methyl-2-imidazolyl)phenyl]-6-cyclopropyl-2-pyridyl}-7-oxo-1,6-dihydro-1,6-diaza-4-indenecarbonitrile] | < 0.1 | < 0.1 |
| C[C@@H]1CN(Cc2cc3c(C#N)cn(-c4cc(-c5ccc(F)cc5-c5nncn5C)cc(C5CC5)n4)c(=O)c3[nH]2)CCO1 [Example 85, 6-[6-cyclopropyl-4-[4-fluoro-2-(4-methyl-1,2,4-triazol-3-yl)phenyl]pyridin-2-yl]-2-[[(2R)-2-methylmorpholin-4-yl]methyl]-7-oxo-1H-pyrrolo[2,3-c]pyridine-4-carbonitrile] | < 0.1 | < 0.1 |

Now from value to molecule:

| IC50 [1] [µM] | EC50 [2] [µM] | SMILES |
| --- | --- | --- |
| < 0.1 | < 0.1 | Cn1ccnc1-c1cc(F)ccc1-c1cc(C2CC2)nc(-n2cc(C#N)c3cc(CNCCCF)[nH]c3c2=O)c1 [Example 86, 6-{6-cyclopropyl-4-[4-fluoro-2-(1-methyl-2-imidazolyl)phenyl]-2-pyridyl}-2-[(3-fluoropropylamino)methyl]-7-oxo-1,6-dihydro-1,6-diaza-4-indenecarbonitrile] |
| < 0.1 | < 0.1 | Cn1ccnc1-c1cc(F)ccc1-c1cc(C2CC2)nc(-n2cc(C#N)c3cc(CN4CC5(C4)CS(=O)(=O)C5)[nH]c3c2=O)c1 [Example 87, 6-{6-cyclopropyl-4-[4-fluoro-2-(1-methyl-2-imidazolyl)phenyl]-2-pyridyl}-2-{(2,2-dioxo-2λ^6-thia-6-aza-6-spiro[3.3]heptyl)methyl}-7-oxo-1,6-dihydro-1,6-diaza-4-indenecarbonitrile] |
| < 0.1 | < 0.1 | C[C@H]1CN(Cc2cc3c(C#N)cn(-c4cc(-c5c(F)cc(F)cc5-c5nccn5C)cc(C5CC5)n4)c(=O)c3[nH]2)CCCO1 [Example 88, 2-{1[(S)-2-methyl-1,4-oxazepan-4-yl]methyl}-6-{6-cyclopropyl-4-[4,6-difluoro-2-(1-methyl-2-imidazolyl)phenyl]-2-pyridyl}-7-oxo-1,6-dihydro-1,6-diaza-4-indenecarbonitrile] |
| < 0.1 | < 0.1 | C[C@H]1CCCCN1Cc1cc2c(C#N)cn(-c3cc(-c4c(F)cc(F)cc4-c4nccn4C)cc(C4CC4)n3)c(=O)c2[nH]1 [Example 89, 2-{[(S)-2-methyl-1-piperidyl]methyl}-6-{6-cyclopropyl-4-[4,6-difluoro-2-(1-methyl-2-imidazolyl)phenyl]-2-pyridyl}-7-oxo-1,6-dihydro-1,6-diaza-4-indenecarbonitrile] |
| < 0.1 | 0.1 to 1 | Cn1cnnc1-c1cc(F)ccc1-c1cc(C2CC2)nc(-n2cc(C#N)c3cc(C(O)C4CCOC4)[nH]c3c2=O)c1 (stereo not shown) [Example 90, 6-{6-cyclopropyl-4-[4-fluoro-2-(4-methyl-4H-1,2,4-triazol-3-yl)phenyl]-2-pyridyl}-2-[hydroxy(tetrahydro-3-furyl)methyl]-7-oxo-1,6-dihydro-1,6-diaza-4-indenecarbonitrile] |
| < 0.1 | < 0.1 | Cn1cnnc1-c1cc(F)ccc1-c1cc(C2CC2)nc(-n2cc(C#N)c3cc(C(O)C4CCCC4)[nH]c3c2=O)c1 (stereo not shown) [Example 91, 2-(cyclopentylhydroxymethyl)-6-{6-cyclopropyl-4-[4-fluoro-2-(4-methyl-4H-1,2,4-triazol-3-yl)phenyl]-2-pyridyl}-7-oxo-1,6-dihydro-1,6-diaza-4-indenecarbonitrile] |
